Assay results from patent US9133115B2 (ACHILLION PHARMACEUTICALS, INC., priority 2008, dated 2015).

Test system: HCV replicon
Assay: HCV replicon replication assay (NPT ELISA) in Huh-7 replicon-containing cells
Format: cell-based
Conditions: Hepatitis C virus, 72 h; HCV replicon in Huh-7 cells, three days incubation; read-out: EC50
Outline: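 Huh-7 cells carrying a bicistronic HCV replicon (HCV-IRES-neo, EMCV-IRES-driven NS3–NS5B, 3′-NTR) were seeded at 6000-7500 cells/well, grown 24 h to 60-70% confluence, then treated with graded compound concentrations. Replication was read as NPT level by capture ELISA (rabbit anti-NPTII, Eu-N1 secondary); interferon alpha served as positive control.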

Question: `C=CC1C[C@]1(NC(=O)[C@@H]1C[C@@H](Oc2cc(-c3ccccc3)nc3cc(OC)ccc23)CN1C(=O)[C@@H](CC(=O)N1CCCC(CNC(=O)OC(C)(C)C)C1)C(C)(C)C)C(=O)NS(=O)(=O)C1CC1` (stereo partly drawn) [Compound 168, tert-butyl (1-((S)-3-((2S,4R)-2-((1R,2S)-1-(cyclopropyl-sulfonylcarbamoyl)-2-vinylcyclopropyl-carbamoyl)-4-(7-methoxy-2-phenylquinolin-4-yloxy)pyrrolidine-1-carbonyl)-4,4-dime-thylpentanoyl)piper-idin-3-yl)methylcarbamate] was tested. Which EC50 did it give?
Answer: Its EC50 is under 1000 nM.

Question: For `C=C[C@@H]1C[C@]1(NC(=O)[C@@H]1C[C@@H](Oc2cc(-c3csc(NC(C)C)n3)nc3cc(OC)ccc23)CN1C(=O)[C@@H](CC(=O)N1CCCCC1)C(C)(C)C)C(=O)NS(=O)(=O)C1CC1` [Compound 96, (2S,4R)-1-((S)-2-tert-butyl-4-oxo-4-(piperidin-1-yl)butanoyl)-N-((1R,2S)-1-(cyclopropylsulfonyl-carbamoyl)-2-vinylcyclopropyl)-4-(2-(2-(isopropyl-amino)thiazol-4-yl)-7-methoxyquinolin-4-yloxy)pyrrolidine-2-carboxamide], which EC50 is on record?
Answer: Its EC50 is under 1000 nM.

Question: Which EC50 does the source give for `C=C[C@H]1C[C@]1(NC(=O)[C@@H]1C[C@@H](Oc2cc(-c3ccccc3)nc3cc(OC)ccc23)CN1C(=O)[C@H](CC(=O)N1CCCCC1)CC1CCCCC1)C(=O)NS(=O)(=O)C1CC1` [Compound 60, (2S,4R)-1-((S)-2-(cyclohexylmethyl)-4-oxo-4-(piperidin-1-yl)butanoyl)-N-((1R,2R)-1-(cyclopropyl-sulfonylcarbamoyl)-2-vinylcyclopropyl)-4-(7-methoxy-2-phenylquinolin-4-yloxy)pyrrolidine-2-carboxamide] here?
Answer: The EC50 was 1000 to 10000 nM.

Question: Which EC50 does the source give for `C=C[C@@H]1C[C@]1(NC(=O)[C@@H]1C[C@@H](Oc2cc(-c3ccccc3)nc3cc(OC)ccc23)CN1C(=O)[C@@H](CC(=O)N1CCCC1)C(C)(C)C)C(=O)NS(=O)(=O)C1CC1` [Compound 87, (2S,4R)-1-((S)-2-tert-butyl-4-oxo-4-(pyrrolidin-1-yl)butanoyl)-N-((1R,2S)-1-(cyclo-propylsulfonyl-carbamoyl)-2-vinylcyclopropyl)-4-(7-methoxy-2-phenylquinolin-4-yloxy)pyrrolidine-2-carboxamide] here?
Answer: The EC50 was under 1000 nM.

Question: For `C=C[C@@H]1C[C@]1(NC(=O)[C@@H]1C[C@@H](Oc2cc(-c3ccccn3)nc3cc(OC)ccc23)CN1C(=O)[C@@H](CC(=O)N1CCC(C(F)(F)F)CC1)C(C)(C)C)C(=O)NS(=O)(=O)C1CC1` [Compound 215, (2S,4R)-1-((S)-2-tert-butyl-4-oxo-4-(4-(trifluoro-methyl)piperidin-1-yl)butanoyl)-N-((1R)-1-(cyclopropyl-sulfonylcarbamoyl)-2-vinylcyclopropyl)-4-(7-methoxy-2-(pyridin-2-yl)quinolin-4-yloxy)pyrrolidine-2-carboxamide], which EC50 is on record?
Answer: Its EC50 is under 1000 nM.

Question: Which EC50 does the source give for `C=C[C@@H]1C[C@]1(NC(=O)[C@@H]1C[C@@H](Oc2nc(-c3ccccn3)nc3cc(OC)ccc23)CN1C(=O)[C@@H](CC(=O)N1CCCCC1)C(C)(C)C)C(=O)NS(=O)(=O)C1CC1` [Compound 144, (2S,4R)-1-((S)-2-tert-butyl-4-oxo-4-(piperidin-1-yl)butanoyl)-N-((1R,2S)-1-(cyclo-propylsulfonyl-carbamoyl)-2-vinyl-cyclopropyl)-4-(7-methoxy-2-(pyridin-2-yl)quinazolin-4-yloxy)pyrrolidine-2-carboxamide] here?
Answer: The EC50 was under 1000 nM.

Question: `C=C[C@@H]1C[C@]1(NC(=O)[C@@H]1C[C@@H](Oc2cc(-c3ccccc3)nc3cc(OC)ccc23)CN1C(=O)[C@@H](CC(=O)N1CCC(N(C)C)C1)C(C)(C)C)C(=O)NS(=O)(=O)C1CC1` (stereo partly drawn) [Compound 90, (2S,4R)-1-((2S)-2-tert-butyl-4-(3-(dimethylamino)pyr-rolidin-1-yl)-4-oxobutanoyl)-N-((1R,2S)-1-(cyclopropylsulfonyl-carbamoyl)-2-vinylcyclopropyl)-4-(7-methoxy-2-phenylquinolin-4-yloxy)pyrrolidine-2-carboxamide] was tested. Which EC50 did it give?
Answer: The EC50 was 1000 to 10000 nM.

Question: How did the EC50 turn out when `C=C[C@@H]1C[C@]1(NC(=O)[C@@H]1C[C@@H](N(Cc2ccccn2)C(=O)n2c3ccccc3c3ccccc32)CN1C(=O)[C@@H](CC(=O)N1CCCC(F)(F)C1)C(C)(C)C)C(=O)NS(=O)(=O)C1CC1` [Compound 192, N-((3R,5S)-1-((S)-2-tert-butyl-4-(3,3-difluoropiperidin-1-yl)-4-oxobutanoyl)-5-((1R)-1-(cyclopropylsulfonyl-carbamoyl)-2-vinylcyclopropyl-carbamoyl)pyrrolidin-3-yl)-N-(pyridin-2-ylmethyl)-9H-carbazole-9-carboxamide] was run?
Answer: Its EC50 is under 1000 nM.

Question: Which EC50 does the source give for `C=C[C@@H]1C[C@]1(NC(=O)[C@@H]1C[C@@H](Oc2cc(-c3ccccc3)nc3cc(OC)ccc23)CN1C(=O)[C@@H](CC(=O)N1CCCCC1)C(C)(C)C)C(=O)NS(=O)(=O)c1cccs1` [Compound 72, (2S,4R)-1-((S)-2-tert-butyl-4-oxo-4-(piperidin-1-yl)butanoyl)-4-(7-methoxy-2-phenylquinolin-4-yloxy)-N-((1R,2S)-1-(thiophen-2-ylsulfonylcarbamoyl)-2-vinylcyclopropyl)pyr-rolidine-2-carboxamide] here?
Answer: The EC50 was under 1000 nM.

Question: Which EC50 does the source give for `C=C[C@@H]1C[C@]1(NC(=O)[C@@H]1C[C@@H](NC(=O)c2cc(-c3ccccc3)nc3ccccc23)CN1C(=O)[C@@H](CC(=O)N1CCCCCC1)C(C)(C)C)C(=O)NS(=O)(=O)C1CC1` [Compound 203, N-((3R,5S)-1-((S)-4-(azepan-1-yl)-2-tert-butyl-4-oxobutanoyl)-5-((1R,2S)-1-(cyclo-propylsulfonyl-carbamoyl)-2-vinylcyclopropyl-carbamoyl)pyrrolidin-3-yl)-2-phenylquinoline-4-carboxamide] here?
Answer: The EC50 was under 1000 nM.

Question: How did the EC50 turn out when `C=C[C@@H]1CC1(NC(=O)[C@@H]1C[C@@H](Oc2cc(-c3cccnc3)nc3c(C)c(OC)ccc23)CN1C(=O)[C@@H](CC(=O)N1CCC(C(F)(F)F)CC1)C(C)(C)C)C(=O)NS(=O)(=O)C1CC1` (stereo in doubt) [Compound 253, (2S,4R)-1-((S)-2-tert-butyl-4-oxo-4-(4-(trifluoro-methyl)piperidin-1-yl)butanoyl)-N-((S)-1-(cyclopropyl-sulfonylcarbamoyl)-2-vinylcyclopropyl)-4-(7-methoxy-8-methyl-2-(pyridin-3-yl)quinolin-4-yloxy)pyrrolidine-2-carboxamide] was run?
Answer: The EC50 was under 1000 nM.

Question: Which EC50 does the source give for `C=C[C@@H]1C[C@]1(NC(=O)[C@@H]1C[C@@H](Oc2cc(-c3ccccc3)nc3cc(OC)ccc23)CN1C(=O)[C@@H](CC(=O)N1CCCCC1)C(C)(C)C)C(=O)NS(=O)(=O)c1ccccc1` [Compound 62, (2S,4R)-1-((S)-2-tert-butyl-4-oxo-4-(piperidin-1-yl)butanoyl)-4-(7-methoxy-2-phenylquinolin-4-yloxy)-N-((1R,2S)-1-(phenylsulfonyl-carbamoyl)-2-vinyl-cyclopropyl)pyr-rolidine-2-carboxamide] here?
Answer: The EC50 was under 1000 nM.

Question: For `C=C[C@@H]1C[C@]1(NC(=O)[C@@H]1C[C@@H](Oc2cc(-c3ccccc3)nc3cc(OC)ccc23)CN1C(=O)[C@@H](CC(=O)N1CCCCC1)C(C)(C)C)C(=O)NS(=O)(=O)C(C)(C)C` [Compound 65, (2S,4R)-1-((S)-2-tert-butyl-4-oxo-4-(piperidin-1-yl)butanoyl)-N-((1R,2S)-1-(tert-butylsulfonyl-carbamoyl)-2-vinylcyclopropyl)-4-(7-methoxy-2-phenylquinolin-4-yloxy)pyrrolidine-2-carboxamide], which EC50 is on record?
Answer: The EC50 was 1000 to 10000 nM.

Question: How did the EC50 turn out when `C=C[C@@H]1C[C@]1(NC(=O)[C@@H]1C[C@@H](Oc2cc(-c3ccccc3)nc3cc(OC)ccc23)CN1C(=O)[C@@H](CC(=O)N1CC(Cl)C1)C(C)(C)C)C(=O)NS(=O)(=O)C1CC1` [Compound 224, (2S,4R)-1-((S)-2-tert-butyl-4-(3-chloroazetidin-1-yl)-4-oxobutanoyl)-N-((1R)-1-(cyclopropyl-sulfonylcarbamoyl)-2-vinylcyclopropyl)-4-(7-methoxy-2-phenylquinolin-4-yloxy)pyrrolidine-2-carboxamide] was run?
Answer: Its EC50 is under 1000 nM.

Question: How did the EC50 turn out when `C=CC1CC1(NC(=O)[C@@H]1C[C@@H](Oc2cc(-c3ccccc3)nc3cc(OC)ccc23)CN1C(=O)[C@@H](CC(=O)N1CCc2ccccc2C1)C(C)(C)C)C(=O)NS(=O)(=O)C1CC1` (stereo partly drawn) [Compound 40, (2S,4R)-1-((S)-2-tert-butyl-4-(3,4-dihydro-isoquinolin-2(1H)-yl)-4-oxobutanoyl)-N-(1-(cyclopropyl-sulfonyl-carbamoyl)-2-vinylcyclopropyl)-4-(7-methoxy-2-phenylquinolin-4-yloxy)pyrrolidine-2-carboxamide] was run?
Answer: Its EC50 is under 1000 nM.

Question: `C=C[C@@H]1C[C@]1(NC(=O)[C@@H]1C[C@@H](OC(=O)N2c3ccccc3Oc3ccccc32)CN1C(=O)[C@@H](CC(=O)N1CCCCC1)C(C)(C)C)C(=O)NS(=O)(=O)C1CC1` [Compound 154, (3R,5S)-1-((S)-2-tert-butyl-4-oxo-4-(piperidin-1-yl)butanoyl)-5-((1R,2S)-1-(cyclo-propylsulfonyl-carbamoyl)-2-vinyl-cyclopropyl-carbamoyl)pyrrolidin-3-yl 10H-phenoxazine-10-carboxylate] was tested. Which EC50 did it give?
Answer: The EC50 was 1000 to 10000 nM.

Question: For `C=C[C@H]1C[C@]1(NC(=O)[C@@H]1C[C@@H](Oc2cc(-c3ccccc3)nc3cc(OC)ccc23)CN1C(=O)[C@@H](CC(=O)N1CCCCC1)C(C)C)C(=O)NS(=O)(=O)C1CC1` [Compound 58, (2S,4R)-N-((1R,2R)-1-(cyclopropyl-sulfonylcarbamoyl)-2-vinylcyclopropyl)-1-((S)-2-isopropyl-4-oxo-4-(piperidin-1-yl)butanoyl)-4-(7-methoxy-2-phenylquinolin-4-yloxy)pyrrolidine-2-carboxamide], which EC50 is on record?
Answer: Its EC50 is under 1000 nM.

Question: Which EC50 does the source give for `C=C[C@@H]1C[C@]1(NC(=O)[C@@H]1C[C@@H](Oc2cc(-c3ccccc3)nc3cc(OC)ccc23)CN1C(=O)[C@@H](CC(=O)N1CCCCC1)C(C)(C)C)C(=O)NS(C)(=O)=O` [Compound 68, (2S,4R)-1-((S)-2-tert-butyl-4-oxo-4-(piperidin-1-yl)butanoyl)-4-(7-methoxy-2-phenylquinolin-4-yloxy)-N-((1R,2S)-1-(methylsulfonyl-carbamoyl)-2-vinyl-cyclopropyl)pyr-rolidine-2-carboxamide] here?
Answer: Its EC50 is under 1000 nM.

Same assay, conditions: Hepatitis C virus, Huh-7

Question: With `C=CC1CC1(NC(=O)[C@@H]1C[C@@H](Oc2cc(-c3ccccc3)nc3cc(OC)ccc23)CN1C(=O)[C@@H](CC(=O)N1CCc2ccccc2C1)C(C)(C)C)C(=O)NS(=O)(=O)C1CC1` (stereo partly drawn) [Compound 40, (2S,4R)-1-((S)-2-tert-butyl-4-(3,4-dihydro-isoquinolin-2(1H)-yl)-4-oxobutanoyl)-N-(1-(cyclopropyl-sulfonyl-carbamoyl)-2-vinylcyclopropyl)-4-(7-methoxy-2-phenylquinolin-4-yloxy)pyrrolidine-2-carboxamide] as the molecule, how does the EC50 read?
Answer: The EC50 was at most 10000 nM.
